Like-named read-outs stand apart in the source and are kept apart here.
Assays:
[1] = system: intracellular S. Typhimurium in RAW264.7 cells; test: CFU assay of bacterial growth in macrophages; assay type: cell-based, Salmonella enterica serovar Typhimurium; settings: submicromolar concentrations, with gentamicin 20 mg/L, 24 h
Method: Overnight cultures of S. Typhimurium were diluted 1:100 in fresh LB broth and incubated for 2 h at 37°C. The bacteria were then collected and suspended in PBS to an OD600 of 0.6. RAW264.7 cells seeded in a 6-well plate were infected with S. Typhimurium at an MOI of 25 for 1 h. After infection, the cells were washed, exposed to 100 mg/L gentamicin for 1 h, and treated with SW14 (0.25 to 1 μM) in combination with 20 mg/L gentamicin for 24 h. Then, the infected cells were washed and lysed with 0.1% Triton X-100 in PBS for 10 min at 37°C to release the intracellular bacteria. The cell lysates were serially diluted in PBS, spread on LB agar plates, and incubated at 37°C for 18 h. The bacterial colonies on the plates were enumerated and expressed as CFU.

[2] = system: intracellular S. Typhimurium in RAW264.7 macrophages; test: microbe, parasite or virus in culture; assay type: cell-based, Salmonella enterica serovar Typhimurium; settings: for viability at 0.5 µM: TYPHIMURIUM, RAW264.7, read-out: viability of intracellular Salmonella compared to mock-treated cells
Method: Overnight cultures of RFP-expressing S. Typhimurium were prepared for infection by 1:100 dilution in fresh LB broth and incubation for 2 h at 37°C. The bacteria were then collected by centrifugation at 6,000 × g for 3 min and suspended in phosphate-buffered saline (PBS; pH 7.2) to an optical density of 0.6 at 600 nm, which was equivalent to 5 × 10^8 CFU/mL. RAW264.7 macrophages were seeded in 96-well black clear-bottom plates (Greiner) and incubated for 20 h followed by infection with RFP-expressing S. Typhimurium at a multiplicity of infection (MOI) of 50 for 1 h. […] Afterward, the cells were washed and stained with CellTracker Green (Thermo Fisher Scientific) for 30 min in serum-free DMEM followed by fixation in 3.7% formaldehyde (Sigma-Aldrich) for 20 min and stained with 0.2 mg/L DAPI (4′,6-diamidino-2-phenylindole; AAT Bioquest) for 30 min. Images of individual wells were captured and analyzed using a high-content imaging system (ImageXpress Micro 4; Molecular Devices). The CC50 and 50% effective concentration (EC50) values against intracellular bacteria of each compound were determined using CalcuSyn software (Biosoft).

## Clc1ccc2c(c1)C(NCCN1CCNCC1)=Nc1ccccc1O2 [SW14]
[1]
  viability of intracellular Salmonella (CFU assay): potent suppressive effect
[2]; 0.5 μM SW14, 24 h, equal to the antibiotic at 2-fold concentration
  inhibitory activity of ciprofloxacin and cefixime on intracellular Salmonella in combination with SW14: enhanced
[2]; CC50 RAW264.7 / EC50 intracellular Salmonella
  selectivity index (SI; CC50/EC50): 47
[2]; RAW264.7 shATG7 clones vs empty vector, 24 h
  susceptibility of intracellular Salmonella to SW14 after Atg7 knockdown: more susceptible
[2]; Salmonella enterica, 3-MA 10 mM for 1 h, then SW14 0.5 μM for 24 h, HCA
  viability at 0.5 µM: 36.8%
[2]; Salmonella enterica, SW14 0.5 μM alone, 24 h, HCA
  viability at 0.5 µM: 45%
[2]; Salmonella enterica, RFP-expressing S. Typhimurium in RAW264.7, 24 h, with gentamicin 20 mg/L, HCA, read-out: 50% effective concentration (EC50) against intracellular Salmonella
  EC50: 500 nM
[2]; with NAC 10 mM or GSH 10 mM
  suppressive effect on intracellular S. Typhimurium in the presence of ROS scavengers: reversed
